Assays:
5-HT transporter = 5-HT transporter (Rattus norvegicus, UniProt P31652); assay: Rat Brain 3H-Paroxetine Binding Assay (RB 5HT Transporter); conditions: read-out: RB-5HT Transporter % inhibition @ 1 μM concentration
Human 5-HT Transporter = Human 5-HT Transporter (Homo sapiens, UniProt P31645); assay: Inhibition of 3H-5-HT Uptake by Cells Possessing the Human 5-HT Transporter (HC 5HT Transporter), Jar cells; conditions: HC-5HTC Transporter Ki (nM), Jar cells treated with staurosporine
human 5-HT1A receptors = molecular target: T1, human 5-HT1A receptors (Homo sapiens, UniProt P08908); assay: Displacement of [3H] 8-OH-DPAT from the 5-HT1A serotonin receptor; type: binding; conditions: 1 μM concentration; starred cells of the 5-HT1A column
T1 construct: expressed in transfected cells; host or cells: CHO cells (stably transfected)
T1 sequence (P08908 1-422): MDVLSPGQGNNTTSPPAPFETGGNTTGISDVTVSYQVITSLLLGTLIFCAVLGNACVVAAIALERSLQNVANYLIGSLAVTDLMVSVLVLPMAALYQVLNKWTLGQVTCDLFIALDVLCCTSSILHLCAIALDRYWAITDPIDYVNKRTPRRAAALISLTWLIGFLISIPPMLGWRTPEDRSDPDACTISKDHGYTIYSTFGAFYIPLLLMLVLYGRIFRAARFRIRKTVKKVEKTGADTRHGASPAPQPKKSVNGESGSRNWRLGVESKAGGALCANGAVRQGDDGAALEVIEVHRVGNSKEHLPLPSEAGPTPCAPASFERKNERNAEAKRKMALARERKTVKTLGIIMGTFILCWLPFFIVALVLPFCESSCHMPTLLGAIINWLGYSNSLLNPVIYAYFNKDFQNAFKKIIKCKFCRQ

Chain of Human 5-HT Transporter (P31645 whole entry): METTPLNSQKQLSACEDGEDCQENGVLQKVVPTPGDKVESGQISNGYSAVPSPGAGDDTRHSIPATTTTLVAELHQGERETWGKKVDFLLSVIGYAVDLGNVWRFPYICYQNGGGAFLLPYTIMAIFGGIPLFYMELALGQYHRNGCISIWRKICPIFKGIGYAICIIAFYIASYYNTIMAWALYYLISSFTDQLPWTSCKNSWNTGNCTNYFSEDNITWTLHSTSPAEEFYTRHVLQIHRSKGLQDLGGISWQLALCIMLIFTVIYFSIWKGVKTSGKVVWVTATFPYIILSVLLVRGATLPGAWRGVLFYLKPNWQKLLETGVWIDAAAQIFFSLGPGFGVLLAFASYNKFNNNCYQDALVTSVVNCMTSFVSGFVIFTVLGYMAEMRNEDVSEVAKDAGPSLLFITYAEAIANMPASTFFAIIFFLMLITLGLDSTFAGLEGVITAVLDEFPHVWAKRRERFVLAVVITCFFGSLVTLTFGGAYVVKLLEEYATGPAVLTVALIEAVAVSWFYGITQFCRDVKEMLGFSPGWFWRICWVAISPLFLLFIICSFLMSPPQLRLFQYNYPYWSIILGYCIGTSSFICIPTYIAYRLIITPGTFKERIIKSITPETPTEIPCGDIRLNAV
Chain of 5-HT transporter (P31652 whole entry): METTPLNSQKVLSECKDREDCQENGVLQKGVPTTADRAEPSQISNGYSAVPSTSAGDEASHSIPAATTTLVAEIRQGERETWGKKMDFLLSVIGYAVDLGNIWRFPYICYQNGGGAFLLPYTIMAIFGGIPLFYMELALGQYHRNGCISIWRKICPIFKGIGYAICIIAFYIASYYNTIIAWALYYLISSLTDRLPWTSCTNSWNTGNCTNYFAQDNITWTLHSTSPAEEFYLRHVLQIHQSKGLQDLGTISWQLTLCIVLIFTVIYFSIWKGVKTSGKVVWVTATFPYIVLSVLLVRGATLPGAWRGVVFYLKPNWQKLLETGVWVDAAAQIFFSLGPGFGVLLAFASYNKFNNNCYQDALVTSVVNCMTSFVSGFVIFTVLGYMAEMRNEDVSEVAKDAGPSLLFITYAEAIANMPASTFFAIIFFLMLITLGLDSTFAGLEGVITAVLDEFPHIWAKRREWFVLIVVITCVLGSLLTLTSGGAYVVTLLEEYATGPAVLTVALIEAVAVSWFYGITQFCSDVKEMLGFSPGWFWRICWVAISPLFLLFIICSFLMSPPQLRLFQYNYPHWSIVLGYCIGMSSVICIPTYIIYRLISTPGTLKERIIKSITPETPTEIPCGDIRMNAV

Clc1cc(N2CCN(CCc3coc4cc(Cl)ccc34)CC2)c2ncccc2c1 [Compound 7, 8-{4-[2-(6-chloro-1-benzofuran-3-yl)ethyl]-1-piperazinyl}-6-chloro-quinoline]
inhibition at 1 µM (5-HT transporter): 32%
Ki (Human 5-HT Transporter): 2150 nM

COc1ccc2occ(CCN3CCN(c4cc(C(C)C)cc5cccnc45)CC3)c2c1 [Compound 24, 8-{4-[2-(5-methoxy-1-benzofuran-3-yl)ethyl]-1-piperazinyl}-6-isopropyl-quinoline]
inhibition at 1 µM (human 5-HT1A receptors): 46%
inhibition at 1 µM (5-HT transporter): 24%
Ki (Human 5-HT Transporter): 3730 nM

Fc1cc(N2CCN([C@H]3CC[C@@H](c4csc5ccc(F)cc54)CC3)CC2)c2ncccc2c1 [Compound 47, 6-fluoro-8-{4-[4-cis(5-fluoro-1-benzothien-3-yl)cyclohexyl]piperazin-1-yl}quinoline]
inhibition at 1 µM (5-HT transporter): 25%
Ki (Human 5-HT Transporter): 3490 nM

Fc1ccc2scc([C@H]3CC[C@H](N4CCN(c5ccc(Cl)c6cccnc56)CC4)CC3)c2c1 [Compound 52, 5-chloro-8-{4-[4-trans(5-fluoro-1-benzothien-3-yl)cyclohexyl]piperazin-1-yl}quinoline]
inhibition at 1 µM (human 5-HT1A receptors): 42%
melting point: 195 to 197 °C
Ki (Human 5-HT Transporter): 751 nM

Fc1ccc(N2CCN([C@H]3CC[C@@H](c4coc5ccccc54)CC3)CC2)c2ncccc12 [Compound 53, 8-{4-[4-cis(1-benzofuran-3-yl)cyclohexyl]-1-piperazinyl}-5-fluoroquinoline]
melting point: 142 to 144 °C
Ki (Human 5-HT Transporter): 3910 nM

Fc1ccc(N2CCN([C@H]3CC[C@H](c4coc5ccccc54)CC3)CC2)c2ncccc12 [Compound 54, 8-{4-[4-trans(1-benzofuran-3-yl)cyclohexyl]-1-piperazinyl}-5-fluoroquinoline]
melting point: 162 to 164 °C
Ki (Human 5-HT Transporter): 220 nM

Fc1cc(N2CCN([C@H]3CC[C@H](c4coc5ccccc54)CC3)CC2)c2ncccc2c1 [Compound 56, 8-{4-[4-trans(1-benzofuran-3-yl)cyclohexyl]-1-piperazinyl}-6-fluoroquinoline]
melting point: 195 to 197 °C
Ki (Human 5-HT Transporter): 337 nM

COc1cccc2c1occ2[C@H]1CC[C@@H](N2CCN(c3ccc(F)c4cccnc34)CC2)CC1 [Compound 57, 5-fluoro-8-{4-[4-cis(7-methoxy-1-benzofuran-3-yl)cyclohexyl]-1-piperazinyl}quinoline]
melting point: 143 to 146 °C
Ki (Human 5-HT Transporter): 3040 nM

COc1cccc2c1occ2[C@H]1CC[C@@H](N2CCN(c3cc(F)cc4cccnc34)CC2)CC1 [Compound 59, 6-fluoro-8-{4-[4-cis(7-methoxy-1-benzofuran-3-yl)cyclohexyl]-1-piperazinyl}quinoline]
melting point: 75 to 83 °C
Ki (Human 5-HT Transporter): 455 nM

COc1cccc2c1occ2[C@H]1CC[C@H](N2CCN(c3cc(F)cc4cccnc34)CC2)CC1 [Compound 60, 6-fluoro-8-{4-[4-trans(7-methoxy-1-benzofuran-3-yl)cyclohexyl]-1-piperazinyl}quinoline]
melting point: 195 to 197 °C
Ki (Human 5-HT Transporter): 212 nM

COc1cccc2c1occ2[C@H]1CC[C@@H](N2CCN(c3cccc4cccnc34)CC2)CC1 [Compound 61, 8-{4-[4-cis(7-methoxy-1-benzofuran-3-yl)cyclohexyl]-1-piperazinyl}quinoline]
melting point: 66 to 67 °C
Ki (Human 5-HT Transporter): 96.8 nM

COc1cccc2c1occ2[C@H]1CC[C@H](N2CCN(c3cccc4cccnc34)CC2)CC1 [Compound 62, 8-{4-[4-trans(7-methoxy-1-benzofuran-3-yl)cyclohexyl]-1-piperazinyl}quinoline]
melting point: 195 to 197 °C
Ki (Human 5-HT Transporter): 38 nM

COc1ccc2occ([C@H]3CC[C@@H](N4CCN(c5cc(F)cc6cccnc56)CC4)CC3)c2c1 [Compound 67, 6-fluoro-8-{4-[4-cis(5-methoxy-1-benzofuran-3-yl)cyclohexyl]piperazin-1-yl}quinoline]
melting point: 153 to 160 °C
Ki (Human 5-HT Transporter): 1200 nM

COc1ccc2occ([C@H]3CC[C@H](N4CCN(c5cc(F)cc6cccnc56)CC4)CC3)c2c1 [Compound 68, 6-fluoro-8-{4-[4-trans(5-methoxy-1-benzofuran-3-yl)cyclohexyl]piperazin-1-yl}quinoline]
melting point: 152 to 155 °C
Ki (Human 5-HT Transporter): 3290 nM

COc1cc(N2CCN([C@H]3CC[C@@H](c4cc5ccccc5s4)CC3)CC2)c2ncccc2c1 [Compound 70]
melting point: 184 to 186 °C
Ki (Human 5-HT Transporter): 3000 nM
